# Patent publication US5369111A, “Modulator agent and use thereof” (University of Vermont, priority 1992, dated 1994)
# What was measured:
# [1] = Clonogenic assay for cytotoxicity, MDR variant KB-V1; type: cell-based, human; settings: human, kb-v1 cells; read-out: non-toxic concentration limit
# Source text: The analogs were examined in a panel of tumor cell lines of both intrinsic and acquired drug resistance, as described in Table 1. The rat colon adenocarcinoma cell lines RCC-2 and RCC-5 (ref. 13) were maintained in Ham's F12 medium supplemented with 5% heat-inactivated, fetal bovine serum (Sterile Systems. Hyclone, Logan, Utah). The two rat colon cancer cell lines differ in their degree of cellular differentiation; whereas the RCC-2 cell line is undifferentiated, the RCC-5 cell line is highly mucinous. The human epidermoid carcinoma cell line KB-3-1 and its MDR variant KB-Vl, selected by VBL treatment (ref. 14; courtesy of M. Gottesman. National Cancer Institute), was maintained in DMEM medium supplemented with 10%, heat-inactivated, fetal bovine serum. The murine sarcoma cell line […] and its MDR strains A3 and A10 selected by ADM treatment (ref. 15; courtesy of T. Tritton, Dept. Pharmacology, Univ. Vermont). were maintained in DMEM medium supplemented with 10% heat-inactivated, horse serum (Hazelton Biolog. Lenexa, Kans.). Stock cultures were subcultured twice weekly upon reaching the late exponential phase of population growth: population doubling times were 18-24 h. Antibiotics were not used in stock or experimental cultures. The MDR cell strains were grown in drug-free media for 48 h prior to experimental use.
# (§1) Mid-exponential cultures were used for all assays. The RCC-2 and RCC-5 cell lines were seeded into 24-well plates at 2×10^4 cells/well and allowed to attach to the substratum for 16-18 h prior to treatment. The S180 cell lines were seeded into culture tubes at 1×10^5 cells/ml and treated immediately. Cytotoxicity was determined by quantitation of population growth after 72 h incubation by electronic particle counter (Coulter Electronics, Hialeah, Fla.). The human tumor cell lines were used in a clonogenic assay for cytotoxicity. Cells were seeded at 300 cells/dish, incubated overnight and then treated. Colonies were scored 7-11 days later. In all assays of analog modulation of drug sensitivity, the analog was added minutes prior to the addition of cytotoxic drug.
# (§2) FIG. 10 represents the potency of the analog C-20'-deoxy deethyl vincovaline as a modulator of the drug sensitivity of various cell lines: the parental S180 cell line: the two rat colon cancer cell lines, RCC-2 and RCC-5; and the human epidermoid carcinoma cell line KB-3-1 and its MDR cell strain KB-V1, which expresses very high levels of drug resistance (200-500 fold). The enhancement of sensitivity was calculated as the sensitivity index =IC50 of the drug alone divided by the IC50 of the drug+analog. The drugs examined were ADM (o), VBL (Δ), and VCR (.quadrature.). The cytotoxicity of drug and analog treatments in the KB cell lines were measured by cloning efficiencies. The arrows denote the non-toxic concentration limit of the analog in each cell line.
# RCC-2 and RCC-5 cells = test: Inhibition of population growth of rat colon cancer cell lines RCC-2 and RCC-5; type: cell-based; settings: RCC-2 and RCC-5
# Source text: The analogs were examined in a panel of tumor cell lines of both intrinsic and acquired drug resistance, as described in Table 1. The rat colon adenocarcinoma cell lines RCC-2 and RCC-5 (ref. 13) were maintained in Ham's F12 medium supplemented with 5% heat-inactivated, fetal bovine serum (Sterile Systems. Hyclone, Logan, Utah). The two rat colon cancer cell lines differ in their degree of cellular differentiation; whereas the RCC-2 cell line is undifferentiated, the RCC-5 cell line is highly mucinous. The human epidermoid carcinoma cell line KB-3-1 and its MDR variant KB-Vl, selected by VBL treatment (ref. 14; courtesy of M. Gottesman. National Cancer Institute), was maintained in DMEM medium supplemented with 10%, heat-inactivated, fetal bovine serum. […]
# Mid-exponential cultures were used for all assays. […] Cytotoxicity was determined by quantitation of population growth after 72 h incubation by electronic particle counter (Coulter Electronics, Hialeah, Fla.). […] Colonies were scored 7-11 days later. […]
# FIG. 7 represents the toxicity of analog C-20'-deoxy vincovaline (A) and C-20'-deoxy deethyl vincovaline (B) to population growth of the rat colon adenocarcinoma cell lines. The congener was added at various concentrations to RCC-2 (.cndot.) and RCC-5 (Δ) cell cultures and the population cell number was determined 72 hours later. […]
# KB-3-1 cells = test: Modulation of drug sensitivity, KB-3-1; type: cell-based, human; settings: ADM, VBL, VCR
# Procedure: as §1
# as §2, with “The drugs examined were ADM (o), VBL (Δ), and VCR (.quadrature.).” left out, “The arrows denote the non-toxic concentration limit of the analog in each cell line.” left out
# KB-V1 cells = test: Modulation of acquired resistance, KB-V1; type: cell-based, human; settings: at the non-toxic concentration limit of 20 μM
# Procedure: as §1
# as §2, with “The drugs examined were ADM (o), VBL (Δ), and VCR (.quadrature.).” left out, “The arrows denote the non-toxic concentration limit of the analog in each cell line.” left out
smiles,measurement,setting,value
"CC[C@]12C=CCN3CC[C@@]4(c5cc([C@]6(C(=O)OC)C[C@H]7CCCN(CCc8c6[nH]c6ccccc86)C7)c(OC)cc5N(C)[C@H]4[C@@](O)(C(=O)OC)[C@@H]1OC(C)=O)[C@@H]32 [analog n° 352, C-20'-deoxy-20'-deethyl-C-14', 16'-epi-VBL]",MNTC,[1],20 µM
same,reduction in cytotoxicity to the colon cancer cell lines compared to C-20'-deoxy vincovaline,RCC-2 and RCC-5 cells,10 fold
same,sensitization to all three drugs,KB-3-1 cells,3-5 fold
same,sensitization to VCR only,KB-V1 cells,6 fold
